Literature values as cited in US20250275939A1, “CO-CRYSTALS” (UNIVERSITY OF IOWA RESEARCH FOUNDATION, priority 2024, published 2025).
Like-named read-outs stand apart in the source and are kept apart here. Values belong to the molecule of their own block, whether it stands above or below them. Peptide text beside a SMILES is read from it.

Key:
[1] = in vivo
[2] = in vivo; remark: listed apart in the source
[3] = humans, adults and children
[4] = humans, after a single oral dose

Structure (SMILES): C1N2CN3CN1CN(C2)C3 [Methenamine]
serum enzyme elevations / clinically apparent acute liver injury [1]: has not been linked to serum enzyme elevations or to instances of clinically apparent acute liver injury

penetration of the blood-brain barrier [2]: can penetrate the blood-brain barrier
Structure (SMILES): Cc1nc(C)c(C)nc1C [TMP, tetramethyl pyrazine]

acceptable daily intake ([3]; Europe): 40 mg/kg bodyweight
acceptable daily intake ([3]; United States): 50 mg/kg bodyweight
Structure (SMILES): COC(=O)[C@H](Cc1ccccc1)NC(=O)[C@@H](N)CC(=O)O [aspartame, Aspartame] (H-Asp-Phe-OMe)

oral bioavailability [4]: ~2%
Structure (SMILES): O=c1c(O)c(-c2ccc(O)c(O)c2)oc2cc(O)cc(O)c12 [quercetin, Quercetin]
